# Measured values: paper PMC4608580, “Synthesis and Evaluation of Biological Activity of Antimicrobial – Pro-Proliferative Peptide Conjugates” (PLoS ONE, 2015)
# Residues, ends and D or L forms follow the SMILES beside them.
# Legend:
# [1] = Circular dichroism, alpha-helical content; format: physicochemical; settings: CD, mean residue ellipticity at 222 nm (Eq 1), peptide 0.4 mg/ml in 30 mM SDS, room temperature
# Description: Circullar dichroism spectra of analyzed compounds were recorded on a Jasco J-815 spectropolarimeter using a quartz cell of 1 mm path length between 195–260 nm at room temperature. Peptides at concentration of 0.4 mg/ml were dissolved in water or 30 mM SDS solution. SDS micelle system was used as the simplified model of negatively charged lipid membrane. On the basis of the obtained results the alpha-helical content was determined from the mean residue ellipticities at 222 nm according to Eq 1: %Helix=([θ]obs/([θ]helixx(1−2.57/l))x100, (1) where [θ] obs is the experimentally observed mean-residue ellipticity at 222 nm, [θ]helix is the theoretical ellipticity of peptide of infinite length with a 100% helix population, taken as -39 500 deg·cm^2/dmol, and l is the number of peptide bonds.
# Circular dichroism method was applied to obtain a basic information about the secondary structure of the synthesized compounds (with the exception of CAR, CAR3, DAL, CTEN2) in two chemical environments, water and 30 mM SDS. As expected, all the tested compounds in water adopted a random-coil structure, while in the presence of 30 mM SDS most of them formed α-helices with characteristic negative minima around 208 and 220 nm. […] The examples of CD spectra for selected peptides could be seen in supporting information (Figure A in S1 File). On the basis of the experimentally obtained values of the mean residue ellipticities of peptides at 222 nm their alpha-helical content was calculated according to the Eq 1 (Table 1).
# [2] = system: human primary dermal fibroblasts; assay: Cell migration assay (in vitro scratch test); format: cell-based; settings: 25 μg/mL, 24 h, serum-free DMEM, Mitomycin C 5 μg/mL, vs. control without peptide, three independent experiments
# Description: Biopsies of healthy human skin were obtained aseptically from three donors (47–69 years old) undergoing circumcision after obtaining their written informed consent. All the procedures were approved by the Ethics Committee of Medical University of Gdansk (NKEBN/483/2011. Issued: 2011-12-19). The samples were washed several times with sterile PBS (Sigma-Aldrich, Germany) containing antibiotic (200 U/mL penicillin and 200 μg/mL streptomycin), after which, the subcutaneous tissue was cut off with a sharp blade. The resulting sheets were cut into small fragments, washed two times with sterile PBS and treated with 6 U/mL dispase II (BD, USA) overnight at 4°C to separate epidermis and dermis. The dermis was then digested with 1.0 mg/mL collagenase type I (from Clostridium histolyticum Sigma-Aldrich, Germany) for 2 hours at 37°C to isolate fibroblasts. Cells were used between the 2nd and 4th passage in all experiments.
# Fibroblasts and keratinocytes were seeded (5x10^5 cells/well) in 6-well plates. When desired monolayer confluence was reached, cells were starved for 24 hours in serum-free DMEM. The monolayer was scratched then with 200μL-pipette tip. […] The wounded areas were then photographed by means of Zeiss Observer D1 microscope equipped with camera AxioCam and analyzed with AxioVision software (Carl Zeiss, Germany). Migration activity of the cells treated with the tested peptides were expressed as the percentage of the wounded area with respect to the control probe (cell cultures without any of the peptide), assumed as 100%.
# An in vitro scratch test was performed to investigate the effect of the analyzed compounds on keratinocytes and fibroblasts migration. […]
# Fig 2 Effect of the peptides on HaCaT keratinocytes and fibroblasts cell migration in the in vitro scratch test. […] Migration was analyzed after 24 hours by means of Zeiss Observer D1 microscope, wounding areas were analyzed with AxioVision software and expressed as the percentage of the wound width in comparison to the control sample (cells incubated in DMEM without FCS). […]
# [3] = system: Candida tropicalis (CCM 8264); format: cell-based; settings: broth microdilution, Mueller-Hinton broth + 2% glucose, about 2.5 x 10^3 CFU/mL, 37°C, 24 h, absorbance 590 nm, at least triplicate
# Text: (§1) Escherichia coli (PCM 2057), Staphylococcus aureus (PCM 2054), Staphylococcus epidermidis (PCM 2118), Pseudomonas aeruginosa (PCM 499) were obtained from Polish Collection of Microorganisms. Fungi strains Candida albicans (CCM 8186), Candida glabrata (CCM 8270), Candida parapsilosis (CCM 8260), Candida krusei (CCM 8271), Candida tropicalis (CCM 8264) were acquired from Czech Collection of Microorganisms.
# (§2) Luria-Bertani broth (LB) and Sabouraud Dextrose broth (SB) (Biocorp, Poland) were used for cultivation of bacteria and fungi strains, respectively. Antimicrobial activity of peptides was analyzed through determination of MIC (minimal inhibitory concentration) parameter according to the standard microdilution technique performed on 96-well plates. Mueller-Hinton broth (MHB) was used as the working medium for all bacterial strains, while in case of fungi it was additionally supplemented with 2% glucose.
# (§3) Briefly, inoculum was prepared from freshly grown cultures of microorganisms being at their exponential phase of growth. Each well of 96-well plates containing 100 μL of serially diluted peptides in PBS (phosphate buffer saline) at concentration ranging from 2 to 250 μg/mL were inoculated with 100 μL of approximately 10^5 CFU/mL of bacterial suspension or about 2.5 x 10^3 CFU/mL of fungi suspended in a double concentrated Mueller-Hinton broth (supplemented with 2% glucose for Candida spps.). Then plates were incubated overnight at 37°C and absorbance was read at 590 nm after 24 h. Cultures without peptide were treated as positive control, while uninoculated Mueller-Hinton broth was defined as negative control. All measurements were run at least in triplicate.
# (§4) All peptides were screened against the wide range of microorganisms, including Gram-negative, Gram-positive bacteria and fungi from Candida species (Table 2). Broth microdilution method for MIC determination was used as a standard procedure. All assays were performed on liquid Mueller-Hinton broth, which was additionally supplemented with 2% glucose when fungicidal activity towards Candida spps. was analyzed.
# [4] = system: Escherichia coli (PCM 2057); format: cell-based; settings: broth microdilution, Mueller-Hinton broth, approximately 10^5 CFU/mL, 37°C, 24 h, absorbance 590 nm, at least triplicate
# Text: as §1, §2, §3, §4
# [5] = system: Candida krusei (CCM 8271); format: cell-based; settings: broth microdilution, Mueller-Hinton broth + 2% glucose, about 2.5 x 10^3 CFU/mL, 37°C, 24 h, absorbance 590 nm, at least triplicate
# Text: as §1, §2, §3, §4
# [6] = system: Staphylococcus epidermidis (PCM 2118); format: cell-based; settings: broth microdilution, Mueller-Hinton broth, approximately 10^5 CFU/mL, 37°C, 24 h, absorbance 590 nm, at least triplicate
# Text: as §1, §2, §3, §4
# [7] = system: Candida albicans (CCM 8186); format: cell-based; settings: broth microdilution, Mueller-Hinton broth + 2% glucose, about 2.5 x 10^3 CFU/mL, 37°C, 24 h, absorbance 590 nm, peptide 2 to 250 μg/mL, at least triplicate
# Text: as §1, §2, §3, §4
# [8] = system: Candida glabrata (CCM 8270); format: cell-based; settings: broth microdilution, Mueller-Hinton broth + 2% glucose, about 2.5 x 10^3 CFU/mL, 37°C, 24 h, absorbance 590 nm, at least triplicate
# Text: as §1, §2, §3, §4
# [9] = system: Pseudomonas aeruginosa (PCM 499); format: cell-based; settings: broth microdilution, Mueller-Hinton broth, approximately 10^5 CFU/mL, 37°C, 24 h, absorbance 590 nm, at least triplicate
# Text: as §1, §2, §3, §4
# [10] = system: Candida parapsilosis (CCM 8260); format: cell-based; settings: broth microdilution, Mueller-Hinton broth + 2% glucose, about 2.5 x 10^3 CFU/mL, 37°C, 24 h, absorbance 590 nm, at least triplicate
# Text: as §1, §2, §3, §4
# [11] = system: Staphylococcus aureus (PCM 2054); format: cell-based; settings: broth microdilution, Mueller-Hinton broth, approximately 10^5 CFU/mL, 37°C, 24 h, absorbance 590 nm, at least triplicate
# Text: as §1, §2, §3, §4
# B. subtilis = format: cell-based; settings: broth microdilution, Mueller-Hinton broth, approximately 10^5 CFU/mL, 37°C, 24 h, absorbance 590 nm, at least triplicate
# Description: as §2, §3, §4
# B. cereus = format: cell-based; settings: broth microdilution, Mueller-Hinton broth, approximately 10^5 CFU/mL, 37°C, 24 h, absorbance 590 nm, at least triplicate
# Description: as §2, §3, §4
# HaCaT keratinocytes = assay: Cell migration assay (in vitro scratch test); format: cell-based, human; settings: 25 μg/mL, 24 h
# Description: Fibroblasts and keratinocytes were seeded (5x10^5 cells/well) in 6-well plates. When desired monolayer confluence was reached, cells were starved for 24 hours in serum-free DMEM. The monolayer was scratched then with 200μL-pipette tip. The floating cells and cell debris were removed by double washing in PBS, further replaced with a fresh serum-free medium. Wounded monolayers were incubated for the next 24 h in the presence of tested peptides used at concentration of 25 μg/mL and 5 μg/mL of Mitomycin C (Sigma Aldrich) to prevent proliferation. At the end of the experiment medium was removed and the cells were fixed with 3.7% PFA for 5 min, stained for the next 30 min with 0.05% crystal violet solution, washed several times with distilled water and the plates were left inverted for a couple of minutes to drain. The wounded areas were then photographed by means of Zeiss Observer D1 microscope equipped with camera AxioCam and analyzed with AxioVision software (Carl Zeiss, Germany). Migration activity of the cells treated with the tested peptides were expressed as the percentage of the wounded area with respect to the control probe (cell cultures without any of the peptide), assumed as 100%.
# An in vitro scratch test was performed to investigate the effect of the analyzed compounds on keratinocytes and fibroblasts migration. Evaluation was based on the efficiency of the invasion of the monolayer cells to the prewounded area within 24 h after stimulation with the appropriate compound added at concetration of 25μg/mL.
# Fig 2 Effect of the peptides on HaCaT keratinocytes and fibroblasts cell migration in the in vitro scratch test. HaCaT cells and fibroblasts were grown in 6-well plates until the 100% confluence was reached, then cells were starved for the next 12 hours in DMEM without 10% FCS and scratched once vertically with a 200μL pipette tip. After being washed two times with sterile PBS, a fresh portion of DMEM medium was added and cells were treated with the tested peptides applied at their optimal doses (25 μg/mL). Migration was analyzed after 24 hours by means of Zeiss Observer D1 microscope, wounding areas were analyzed with AxioVision software and expressed as the percentage of the wound width in comparison to the control sample (cells incubated in DMEM without FCS). Control+ FCS corresponds to the sample with cells incubated in the medium containing 10% FCS and was treated as the additional positive control. Data represent the mean ± SD of three independent experiments. *P < 0.05, **P < 0.01, ***P < 0.001 vs. control.
compound,measurement,setting,value
CC(C)C[C@H](NC(=O)[C@H](Cc1ccccc1)NC(=O)CNC(=O)[C@@H](C)NC(=O)[C@@H](N)Cc1ccc(O)cc1)C(=O)N[C@@H](CCCNC(=N)N)C(=O)NCCOCCOCC(=O)N[C@@H](CCCCN)C(=O)N[C@@H](CCCCN)C(=O)N[C@H](C(=O)N[C@H](C(=O)N[C@@H](Cc1ccccc1)C(=O)N[C@@H](Cc1c[nH]c2ccccc12)C(=O)N[C@H](C(=O)N[C@@H](CCCCN)C(=O)N[C@@H](Cc1ccccc1)C(=O)N[C@@H](CCCCN)C(N)=O)C(C)C)C(C)C)C(C)C [DAL-PEG-KSLW] (HELM PEPTIDE1{Y.[dA].G.F.L.R.[O=C(COCCOCCN[*:1])[*:2]].K.K.V.V.F.W.V.K.F.K.[am]}$$$$V2.0; N-terminus assumed),α-helicity,[1],22%
same,"Effect on fibroblast migration (scratch test), in words",[2],highest migration rate
same,MIC C.tropicalis,[3],7.8 µg/mL
same,MIC E.coli,[4],7.8 µg/mL
same,MIC C.krusei,[5],31.3 µg/mL
same,MIC S. epidermidis,[6],3.9 µg/mL
same,MIC C. albicans,[7],31.3 µg/mL
same,MIC C.glabrata,[8],125 µg/mL
same,MIC P. aeruginosa,[9],62.5 µg/mL
same,MIC C. parapsilosis,[10],62.5 µg/mL
same,MIC S.aureus,[11],62.5 µg/mL
same,MIC B. subtilis,B. subtilis,15.6 µg/mL
same,MIC B. cereus,B. cereus,125 µg/mL
same,"Effect on keratinocyte migration (scratch test), in words","HaCaT keratinocytes; serum-free DMEM, Mitomycin C 5 μg/mL, vs. control without peptide, three independent experiments",best results
same,Keratinocyte migration higher than that of the native peptides KSLW and DAL,HaCaT keratinocytes; scratch test,about 15%
